Experimental findings from article PMC3378573, “TRPA1 Is a Polyunsaturated Fatty Acid Sensor in Mammals” (PLoS ONE, 2012) are described below.

Broadly, the EC50 is the concentration at which the effect is half-maximal. A high value points to lower potency in that assay.

Holding throughout (type): cell-based
The target of assay [1] is T1, TRPA1 (Rattus norvegicus, UniProt Q6RI86). Description: patch clamp of native TRPA1 in RIN14B cells, block of DHA current at […]. (Patch clamp records ionic current or voltage across a cell membrane.)
T1 sequence (Q6RI86 whole entry): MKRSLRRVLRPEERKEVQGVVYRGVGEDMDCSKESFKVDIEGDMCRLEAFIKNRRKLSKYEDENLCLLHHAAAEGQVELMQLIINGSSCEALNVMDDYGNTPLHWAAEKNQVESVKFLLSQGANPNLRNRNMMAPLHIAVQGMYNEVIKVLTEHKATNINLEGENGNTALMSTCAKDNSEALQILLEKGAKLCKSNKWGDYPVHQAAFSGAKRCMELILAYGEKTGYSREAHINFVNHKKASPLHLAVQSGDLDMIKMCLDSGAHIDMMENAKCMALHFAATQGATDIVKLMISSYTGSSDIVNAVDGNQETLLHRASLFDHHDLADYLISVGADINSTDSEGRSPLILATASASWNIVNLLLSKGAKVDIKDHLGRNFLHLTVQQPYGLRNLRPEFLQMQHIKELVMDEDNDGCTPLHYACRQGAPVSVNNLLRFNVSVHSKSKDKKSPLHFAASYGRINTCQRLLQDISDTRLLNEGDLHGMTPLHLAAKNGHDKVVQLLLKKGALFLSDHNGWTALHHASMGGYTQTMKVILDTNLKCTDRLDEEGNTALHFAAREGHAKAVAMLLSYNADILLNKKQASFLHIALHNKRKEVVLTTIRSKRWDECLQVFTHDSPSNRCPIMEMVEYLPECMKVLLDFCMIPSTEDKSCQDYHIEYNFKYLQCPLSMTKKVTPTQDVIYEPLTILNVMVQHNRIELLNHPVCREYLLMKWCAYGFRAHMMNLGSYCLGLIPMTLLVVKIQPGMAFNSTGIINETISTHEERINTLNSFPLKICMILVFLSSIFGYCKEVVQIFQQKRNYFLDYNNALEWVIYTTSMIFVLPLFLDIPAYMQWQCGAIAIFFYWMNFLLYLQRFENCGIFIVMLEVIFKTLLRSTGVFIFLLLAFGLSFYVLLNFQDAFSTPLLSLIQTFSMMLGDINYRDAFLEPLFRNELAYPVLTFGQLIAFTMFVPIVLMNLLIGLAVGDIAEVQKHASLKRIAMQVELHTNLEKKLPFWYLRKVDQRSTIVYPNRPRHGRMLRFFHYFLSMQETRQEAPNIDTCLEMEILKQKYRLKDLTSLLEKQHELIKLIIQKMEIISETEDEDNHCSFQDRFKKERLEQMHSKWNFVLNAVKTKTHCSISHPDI
Assay [2] addresses T1, TRPA1. Description: whole-cell patch clamp in transfected HEK293 cells (-60 mV), with NAC.
Assay [3] addresses TRPA1 (Mus musculus, UniProt Q8BLA8). Description: whole-cell patch clamp of native TRPA1 in STC-1 cells (-60 mV). The source says:
whole-cell patch clamp of native TRPA1 in STC-1 cells (-60 mV) on TRPA1 | Concentration-response curve for AITC evoked currents in STC-1 cells

Assay [4] addresses T1, TRPA1. Description: whole-cell patch clamp in transfected HEK293 cells, […] fatty acid.

Chain of TRPA1 (Mus musculus, UniProt Q8BLA8) (Q8BLA8 whole entry): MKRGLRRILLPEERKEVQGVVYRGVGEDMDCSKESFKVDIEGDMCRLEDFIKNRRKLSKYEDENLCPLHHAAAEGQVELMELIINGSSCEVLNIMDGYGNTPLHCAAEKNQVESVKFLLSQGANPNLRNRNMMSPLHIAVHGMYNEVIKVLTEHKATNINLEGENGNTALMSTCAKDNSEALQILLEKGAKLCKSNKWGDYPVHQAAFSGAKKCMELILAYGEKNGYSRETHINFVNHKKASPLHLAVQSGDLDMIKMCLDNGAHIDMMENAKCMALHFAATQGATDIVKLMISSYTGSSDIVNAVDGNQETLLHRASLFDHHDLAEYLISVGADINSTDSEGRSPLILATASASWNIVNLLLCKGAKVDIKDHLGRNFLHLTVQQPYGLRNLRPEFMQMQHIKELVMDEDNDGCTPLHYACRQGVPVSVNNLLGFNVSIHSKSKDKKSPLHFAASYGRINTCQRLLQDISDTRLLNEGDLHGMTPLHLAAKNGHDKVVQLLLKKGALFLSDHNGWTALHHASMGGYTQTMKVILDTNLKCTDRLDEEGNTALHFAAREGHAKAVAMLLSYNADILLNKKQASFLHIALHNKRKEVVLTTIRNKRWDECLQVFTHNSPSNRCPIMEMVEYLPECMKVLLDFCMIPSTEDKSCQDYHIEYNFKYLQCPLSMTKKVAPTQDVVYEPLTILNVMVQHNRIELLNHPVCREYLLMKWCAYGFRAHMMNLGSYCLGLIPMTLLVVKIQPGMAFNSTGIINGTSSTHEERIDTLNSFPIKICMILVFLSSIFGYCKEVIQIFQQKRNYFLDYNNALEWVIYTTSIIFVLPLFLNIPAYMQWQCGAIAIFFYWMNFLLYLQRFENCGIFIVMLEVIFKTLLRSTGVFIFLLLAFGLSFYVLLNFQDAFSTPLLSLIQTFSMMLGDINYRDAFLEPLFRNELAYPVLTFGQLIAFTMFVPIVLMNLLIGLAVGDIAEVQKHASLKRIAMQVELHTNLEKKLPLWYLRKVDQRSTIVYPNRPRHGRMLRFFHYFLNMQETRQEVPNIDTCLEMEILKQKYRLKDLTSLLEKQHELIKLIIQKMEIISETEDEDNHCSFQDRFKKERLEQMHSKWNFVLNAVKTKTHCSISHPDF

As to `CC(C)c1ccc(NC(=O)Cn2cnc3c2c(=O)n(C)c(=O)n3C)cc1` [HC030031], the “patch clamp of native TRPA1 in RIN14B cells, block of DHA current at 50 μM” value at TRPA1 [1] is “outwardly-rectified conductance in voltage-clamped STC-1 and RIN14B cells, that is inhibited by the TRPA1 antagonist, HC030031”.

In the case of `CC/C=C\C/C=C\C/C=C\C/C=C\C/C=C\C/C=C\CCC(=O)O` [DHA, docosahexaenoic acid], on TRPA1 [2], the EC50 was determined as 41 µM.

In turn, `C=CCN=C=S` [AITC, allyl isothiocyanate] had a concentration for a half-maximal effect (EC50) on TRPA1 [3] of 29 µM. Turning to `CCCCC/C=C\C/C=C\C/C=C\C/C=C\CCCC(=O)O` [AA, arachidonic acid], the “whole-cell patch clamp in transfected HEK293 cells, 100 μM fatty acid” value at TRPA1 [4] was “Thus, AA, EPA and DHA possess approximate equivalent efficacy”.
